{
  "source": "patent US20180311238A1",
  "about": "“Selective Agonist Of a6 Containing nAChRs” (Saniona A/S, priority 2017, published 2018)",
  "key": {"[1]": {"molecular_target": "T1, neuromuscular α1-containing receptor subtypes (Homo sapiens, UniProt P02708+P07510+Q07001)", "T1 construct": "endogenous in cells; host or cells: TE671", "T1 sequence (P02708 21-457)": "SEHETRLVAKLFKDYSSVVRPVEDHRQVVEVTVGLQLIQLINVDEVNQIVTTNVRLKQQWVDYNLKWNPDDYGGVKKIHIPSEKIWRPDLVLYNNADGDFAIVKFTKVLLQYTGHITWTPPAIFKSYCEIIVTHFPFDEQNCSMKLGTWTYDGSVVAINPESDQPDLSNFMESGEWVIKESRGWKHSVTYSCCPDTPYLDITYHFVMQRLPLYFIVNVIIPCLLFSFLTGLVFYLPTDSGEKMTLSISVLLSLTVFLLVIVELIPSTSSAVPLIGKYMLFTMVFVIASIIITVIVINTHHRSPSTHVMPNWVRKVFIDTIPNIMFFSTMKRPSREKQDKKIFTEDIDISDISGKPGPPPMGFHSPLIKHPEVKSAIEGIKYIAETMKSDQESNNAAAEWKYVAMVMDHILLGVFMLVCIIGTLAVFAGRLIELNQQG", "T1 sequence (P11230 24-501 partner)": "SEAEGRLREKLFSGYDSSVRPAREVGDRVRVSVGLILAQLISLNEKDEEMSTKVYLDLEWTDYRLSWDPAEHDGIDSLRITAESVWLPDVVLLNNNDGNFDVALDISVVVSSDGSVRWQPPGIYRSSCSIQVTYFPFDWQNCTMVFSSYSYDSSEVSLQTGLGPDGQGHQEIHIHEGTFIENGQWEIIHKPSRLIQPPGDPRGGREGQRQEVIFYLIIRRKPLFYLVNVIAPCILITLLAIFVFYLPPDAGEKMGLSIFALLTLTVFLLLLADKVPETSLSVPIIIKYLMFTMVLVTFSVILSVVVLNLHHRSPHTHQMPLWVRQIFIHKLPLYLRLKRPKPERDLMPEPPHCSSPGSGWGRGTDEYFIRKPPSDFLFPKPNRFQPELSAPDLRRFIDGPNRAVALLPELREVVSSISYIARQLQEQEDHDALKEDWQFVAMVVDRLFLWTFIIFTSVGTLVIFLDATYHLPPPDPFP", "T1 sequence (P07510 23-517)": "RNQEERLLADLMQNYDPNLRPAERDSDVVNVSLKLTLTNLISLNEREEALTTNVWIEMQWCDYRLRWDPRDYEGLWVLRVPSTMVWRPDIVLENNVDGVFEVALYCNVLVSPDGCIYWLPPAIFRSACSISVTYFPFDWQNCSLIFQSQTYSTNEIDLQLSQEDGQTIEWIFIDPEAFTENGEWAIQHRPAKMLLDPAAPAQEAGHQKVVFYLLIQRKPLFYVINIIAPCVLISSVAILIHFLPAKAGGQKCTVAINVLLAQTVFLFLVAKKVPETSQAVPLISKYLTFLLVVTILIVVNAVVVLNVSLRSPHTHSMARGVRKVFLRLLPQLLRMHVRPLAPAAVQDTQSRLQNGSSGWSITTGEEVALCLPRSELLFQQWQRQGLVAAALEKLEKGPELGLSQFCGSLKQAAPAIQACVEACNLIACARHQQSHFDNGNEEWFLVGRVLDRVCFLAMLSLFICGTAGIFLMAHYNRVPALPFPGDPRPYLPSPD", "T1 sequence (Q07001 22-517)": "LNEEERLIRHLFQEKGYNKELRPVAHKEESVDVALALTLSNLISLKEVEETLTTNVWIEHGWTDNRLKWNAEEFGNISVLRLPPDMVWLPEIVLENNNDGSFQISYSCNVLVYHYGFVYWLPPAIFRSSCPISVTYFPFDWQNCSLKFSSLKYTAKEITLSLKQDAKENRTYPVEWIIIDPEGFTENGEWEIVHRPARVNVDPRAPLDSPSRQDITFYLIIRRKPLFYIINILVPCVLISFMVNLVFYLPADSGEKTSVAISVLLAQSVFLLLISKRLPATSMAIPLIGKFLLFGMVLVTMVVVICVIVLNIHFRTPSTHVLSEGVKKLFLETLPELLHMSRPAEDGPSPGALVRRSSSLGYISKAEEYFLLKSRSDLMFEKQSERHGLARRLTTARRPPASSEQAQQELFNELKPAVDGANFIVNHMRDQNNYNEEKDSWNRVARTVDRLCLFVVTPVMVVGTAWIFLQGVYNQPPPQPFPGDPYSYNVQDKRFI", "experiment": "FLIPR fluorescence-based calcium assay, TE671 cells", "format": "cell-based", "conditions": "FLIPR calcium response relative to nicotine", "method": "The level of agonist activity of 9-methyl-3-pyridin-3-yl-3,9-diaza-bicyclo[3.3.1]nonane was tested in functional fluorescence-based calcium assays using TE671 cells and HEK293 cells stably expressing human α6/α3β2β3^V273S, α3β4 and α4β2 nicotinic receptors.\nCells were plated on poly-D-lysine coated 384-well microtiter plates and were allowed to proliferate for 24 h. Dye loading was performed by incubating cells with 2 μM fluo-4/AM for 1.5 h at room temperature. Dye not taken up by cells was removed by aspiration followed by three washing cycles with 25 μl of NMDG Ringer buffer (in mM: 140 NMDG, 5 KCl, 1 MgCl2, 10 CaCl2, 10 HEPES, pH 7.4) after which the cells were kept in 25 μl of the same buffer. The microtiter plates were placed in a Fluoremetric Imaging Plate Reader (FLIPR) and subjected to test compound at various concentrations. Background subtracted compound-mediated calcium responses were normalized to 100 μM nicotine control responses and pEC50 as well as relative maximal efficacy values were determined.\nThe neuromuscular nAChRs subtype—composed of α1β1γδ subunits—can be studied in the human medulloblastoma cell line TE671, and the α1 subunit can be specifically labelled with ^3H-α-bungarotoxin."}, "[2]": {"molecular_target": "T2, neuromuscular nAChRs subtype composed of α1β1γδ subunits (Homo sapiens, UniProt P02708+P07510+Q07001)", "T2 construct": "endogenous in cells; host or cells: TE671", "T2 sequence (P02708 21-457)": "as the sequence (P02708 21-457) above", "T2 sequence (Q07001 22-517)": "as the sequence (Q07001 22-517) above", "T2 sequence (P07510 23-517)": "as the sequence (P07510 23-517) above", "T2 sequence (P11230 24-501, further chain)": "as the sequence (P11230 24-501 partner) above", "experiment": "biochemical", "format": "binding"}, "α6/α3β2β3^V273S receptor": {"molecular_target": "T3, α6/α3β2β3^V273S receptor (Homo sapiens, UniProt Q15825, V273S)", "T3 construct": "fused on or other part: P32297 (Neuronal acetylcholine receptor subunit alpha-3) P17787 (Neuronal acetylcholine receptor subunit beta-2)", "T3 sequence (Q15825 26-239 limits assumed)": "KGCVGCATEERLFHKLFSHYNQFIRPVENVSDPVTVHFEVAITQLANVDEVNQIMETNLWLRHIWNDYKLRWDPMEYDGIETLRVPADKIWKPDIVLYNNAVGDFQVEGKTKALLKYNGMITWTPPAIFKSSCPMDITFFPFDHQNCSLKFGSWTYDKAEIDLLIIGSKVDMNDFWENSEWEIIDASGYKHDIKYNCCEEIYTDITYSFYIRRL", "T3 sequence (P17787 26-502, further chain)": "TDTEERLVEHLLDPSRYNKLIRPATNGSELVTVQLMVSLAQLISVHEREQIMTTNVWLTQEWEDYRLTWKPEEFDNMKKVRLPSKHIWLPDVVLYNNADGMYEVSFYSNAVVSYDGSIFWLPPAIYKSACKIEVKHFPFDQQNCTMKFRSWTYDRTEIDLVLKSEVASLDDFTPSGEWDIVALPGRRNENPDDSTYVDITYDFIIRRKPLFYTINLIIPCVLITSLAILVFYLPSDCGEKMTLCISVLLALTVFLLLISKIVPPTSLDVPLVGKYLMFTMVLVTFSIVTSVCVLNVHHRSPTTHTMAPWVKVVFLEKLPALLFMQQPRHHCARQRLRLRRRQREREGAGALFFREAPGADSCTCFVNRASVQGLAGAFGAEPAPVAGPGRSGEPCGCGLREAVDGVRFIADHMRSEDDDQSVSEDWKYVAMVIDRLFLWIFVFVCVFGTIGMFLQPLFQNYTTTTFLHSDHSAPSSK", "T3 sequence (Q05901 22-458 V273S, further chain)": "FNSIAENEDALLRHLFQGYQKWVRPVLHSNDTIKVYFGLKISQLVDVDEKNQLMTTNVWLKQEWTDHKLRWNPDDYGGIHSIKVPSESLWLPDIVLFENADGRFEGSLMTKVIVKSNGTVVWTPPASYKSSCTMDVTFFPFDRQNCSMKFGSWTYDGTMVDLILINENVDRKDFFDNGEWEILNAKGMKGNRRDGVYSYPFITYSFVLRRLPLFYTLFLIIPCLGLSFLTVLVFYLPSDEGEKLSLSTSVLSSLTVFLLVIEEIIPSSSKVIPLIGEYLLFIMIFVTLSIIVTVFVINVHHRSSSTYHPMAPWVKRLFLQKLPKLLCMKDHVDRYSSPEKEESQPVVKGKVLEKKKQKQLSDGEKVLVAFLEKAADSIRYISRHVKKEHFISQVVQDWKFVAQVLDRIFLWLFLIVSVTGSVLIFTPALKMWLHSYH", "experiment": "Oocyte two-electrode voltage-clamp electrophysiology, α6/α3β2β3V273S", "format": "cell-based", "conditions": "Xenopus laevis oocytes, fitted maximal current relative to acetylcholine; read-out: maximal efficacy compared to ACh", "method": "Two-electrode voltage-clamp electrophysiology recordings were done in Xenopus laevis oocytes injected with approximately 25 ng cRNA. After injection, oocytes were incubated at 17° C. for 2-3 days. During measurements, an oocyte was placed in a custom designed recording chamber where compound solutions are added directly to the oocyte via a glass capillary. Compound solutions were prepared on the day of measurement and applied to oocytes with a flowrate of 2.0 ml/min. All datasets were baseline subtracted and responses to individual applications were read as peak current amplitudes. Concentration response relationships describing compound effect at a fixed acetylcholine concentration were fitted to a monophasic Hill-equation. Potency (EC50) and efficacy values (fitted maximal current relative to maximal current of acetylcholine)."}, "[3]": {"test_system": "rat striatal synaptosomes", "experiment": "3H-dopamine release from rat striatal synaptosomes", "format": "cell-based", "conditions": "fraction of release relative to total releasable dopamine", "method": "Brains from Sprague-Dawley or Wistar rats (200-400 g) were dissected. Tissue from three rat brains yields enough material for one 96-well plate. Striata were dissected on an ice-chilled platform and placed in 12 ml ice-cold dissection buffer. The tissue was hereafter homogenized for 5-10 sec using a motor driven Teflon pestle in a glass homogenizing vessel. The homogenate was centrifuged at 1000×g for 10 min at 4° C. The resulting supernatant was then re-centrifuged at 12,000×g for 20 min at 4° C. The final crude P2 synatosomal fraction was re-suspended in oxygenated (equilibrated with an atmosphere of 96% O2: 4% CO2 for at least 30 min) Krebs bicarbonate buffer (0.5 ml/100 mg wet tissue weight) containing 100 nM ^3H-dopamine (3.9 μl/100 mg wet tissue weight) and incubated at 37° C. for 10 min. Pargyline was added to the buffer to prevent degradation of ^3H-dopamine.\nThe ^3H-dopamine loaded synaptosomes were centrifuged at 1000×g for 5 min at room temperature. […]\nFollowing the collection of stimulated release, 75 μl Solvable™ was added to each well and allowed to incubate for at least 45 min to extract remaining ^3H-DA from the sample. […] Radioactivity from each collection was determined by conventional liquid scintillation counting using a Packard Topcount™ counter. […]"}},
  "data": [
    {"compound": "CN1C2CCCC1CN(c1cccnc1)C2", "note": "[9-methyl-3-pyridin-3-yl-3,9-diaza-bicyclo[3.3.1]nonane]", "values": [
      {"measurement": "efficacy", "setting": "[1]", "value": "practically no efficacy"},
      {"measurement": "Ki", "setting": "[2]", "value": 320, "unit": "nM"},
      {"measurement": "Emax", "setting": "α6/α3β2β3^V273S receptor", "value": 27, "unit": "%"},
      {"measurement": "3H-dopamine release", "setting": "[3]", "value": "concentration-dependently stimulates"}
    ]}
  ]
}
